IC50 data for 39 molecules are collected here from patent publication US11504367B2, “Compounds and methods for treating oxalate-related diseases” (OxaluRx, Inc., priority 2019, dated 2022).

This assay deals with recombinant full-length human hydroxyacid oxidase 1 (HAO1), the equivalents of hGOX (Homo sapiens (Human), UniProt Q9UJM8). Put plainly: In-vitro human glycolate oxidase (hGOX) assay (Amplex red fluorescence). Format: biochemical. The conditions noted are these: 6 nM recombinant human GO, 85 μM glycolate, 10 min preincubation. As to the method: The in-vitro glycolate oxidase assay was performed using recombinant full-length human hydroxyacid oxidase 1 (HAO1), the equivalents of hGOX. […] Purified HAO1 was dissolved in assay buffer consisting of 10 mM NaCl, 110 mM KCl, 2 mM MgCl2, 50 mM HEPES (pH 7.4), and 0.01% Triton™ X-100.
Sequence of recombinant full-length human hydroxyacid oxidase 1 (HAO1), the equivalents of hGOX (Q9UJM8 whole entry): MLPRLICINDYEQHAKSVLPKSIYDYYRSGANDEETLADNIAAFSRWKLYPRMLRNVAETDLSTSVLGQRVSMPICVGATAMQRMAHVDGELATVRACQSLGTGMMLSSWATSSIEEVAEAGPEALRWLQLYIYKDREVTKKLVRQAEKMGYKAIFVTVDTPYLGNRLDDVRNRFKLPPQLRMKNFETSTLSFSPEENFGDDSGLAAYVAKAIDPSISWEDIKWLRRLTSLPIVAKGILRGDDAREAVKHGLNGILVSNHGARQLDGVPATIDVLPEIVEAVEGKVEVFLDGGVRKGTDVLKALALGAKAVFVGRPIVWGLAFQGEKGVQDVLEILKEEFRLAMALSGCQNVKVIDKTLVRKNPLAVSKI
The plates were incubated for 10 min at room temperature, at which point Amplex red reagent (50 μM) was added.
The fluorescence intensity signal was measured on a VariosKan LUX instrument using an excitation of 560 nm and an emission of 590 nm. The IC50 values were calculated using Graphpad Prism. The fluorescence signal of wells containing only DMSO was defined as 100% GO activity, while the fluorescence signal without the glycolate substrate was defined as 0% GO activity.
As to `O=C(O)c1nn[nH]c1Oc1ccc(C#Cc2ccc3cn[nH]c3c2)cc1` [Example 329, 5-(4-(2-(1H-Indazol-6-yl)ethynyl)phenoxy)-1H-1,2,3-triazole-4-carboxylic Acid], the half-inhibitory concentration (IC50) amounted to 2 nM.

Consider `N#CCCC#Cc1cccc(Oc2[nH]nnc2C(=O)O)c1` [Example 350, 5-(3-(4-Cyanobut-1-ynyl)phenoxy)-1H-1,2,3-triazole-4-carboxylic Acid], for which the IC50 amounted to 10 nM.

Turning to `CCOC(=O)c1nn[nH]c1Oc1cccc(C#CCC(C)(C)C)c1` [Example 371, Ethyl 5-(3-(4,4-dimethylpent-1-ynyl)phenoxy)-1H-1,2,3-triazole-4-carboxylate], the IC50 is more than 1000 nM.

Take `CS(=O)(=O)c1cccc(C#Cc2cc(F)cc(Oc3[nH]nnc3C(=O)O)c2)c1` [Example 275, 5-(3-Fluoro-5-(2-(3-(methylsulfonyl)phenyl)ethynyl)phenoxy)-1H-1,2,3-triazole-4-carboxylic Acid]: the IC50 came out at 3 nM.

Take `Cn1ncc2ccc(C#Cc3cccc(Oc4[nH]nnc4C(=O)O)c3)cc21` [Example 319, 5-(3-(2-(1-Methyl-1H-indazol-6-yl)ethynyl)phenoxy)-1H-1,2,3-triazole-4-carboxylic Acid]: the IC50 was 2 nM.

`O=C(O)c1nn[nH]c1Oc1ccc(F)c(C#Cc2ccccc2)c1` [Example 259, 5-(4-Fluoro-3-(2-phenylethynyl)phenoxy)-1H-1,2,3-triazole-4-carboxylic Acid]: the IC50 was found to be 1 nM.

Take `O=C(O)c1nn[nH]c1Oc1ccc(C(F)(F)F)c(C#Cc2ccccc2)c1` [Example 263, 5-(4-(Trifluoromethyl)-3-(2-phenylethynyl)phenoxy)-1H-1,2,3-triazole-4-carboxylic Acid]: the concentration for half-maximal inhibition (IC50) came to 2 nM.

Consider `O=C(O)c1nn[nH]c1Oc1ccc(C#Cc2ccc(Cl)cc2)cc1` [Example 290, 5-(4-(2-(4-Chlorophenyl)ethynyl)phenoxy)-1H-1,2,3-triazole-4-carboxylic Acid], for which the IC50 worked out at 0.4 nM.

As for `O=C(O)c1nn[nH]c1Oc1cccc(C#Cc2ccncc2)c1` [Example 313, 5-(3-(2-(Pyridin-4-yl)ethynyl)phenoxy)-1H-1,2,3-triazole-4-carboxylic Acid], the IC50 worked out at 3 nM.

As for `N#Cc1ccc(C#Cc2cc(F)cc(Oc3[nH]nnc3C(=O)O)c2)cc1` [Example 276, 4-(3-((4-Cyanophenyl)ethynyl)-5-fluorophenoxy)-1H-1,2,3-triazole-5-carboxylic Acid], the concentration for half-maximal inhibition (IC50) was 3 nM.

Regarding `CC(C)(C)CC#Cc1cccc(Oc2[nH]nnc2C(=O)O)c1` [Example 372, 5-(3-(4,4-Dimethylpent-1-ynyl)phenoxy)-1H-1,2,3-triazole-4-carboxylic Acid], the IC50 is more than 1000 nM.

`O=C(O)c1nonc1Oc1ccc(C#CCC2CC2)cc1` [Example 369, 4-(4-(3-Cyclopropylprop-1-ynyl)phenoxy)-1,2,5-oxadiazole-3-carboxylic Acid]: the concentration for half-maximal inhibition (IC50) was more than 1000 nM.

In the case of `O=C(O)c1nn[nH]c1Oc1cccc(C#CCC2CC(F)(F)C2)c1` [Example 367, 5-(3-(3-(3,3-Difluorocyclobutyl)prop-1-ynyl)phenoxy)-1H-1,2,3-triazole-4-carboxylic Acid], the IC50 stood at 9 nM.

As to `Cc1cc(C#Cc2ccc(Oc3[nH]nnc3C(=O)O)cc2)ccn1` [Example 298, 5-(4-(2-(2-Methylpyridin-4-yl)ethynyl)phenoxy)-1H-1,2,3-triazole-4-carboxylic Acid], the IC50 was 3 nM.

As for `Cn1nccc1C#Cc1cccc(Oc2[nH]nnc2C(=O)O)c1` [Example 322, 5-(3-(2-(1-Methyl-1H-pyrazol-5-yl)ethynyl)phenoxy)-1H-1,2,3-triazole-4-carboxylic Acid], the IC50 was 4 nM.

`Cn1cc(C#Cc2ccc(Oc3[nH]nnc3C(=O)O)cc2)ccc1=O` [Example 208, 4-(4-((1-Methyl-6-oxo-1,6-dihydropyridin-3-yl)ethynyl)phenoxy)-1H-1,2,3-triazole-5-carboxylic Acid]: the IC50 was found to be 2 nM.

Regarding `O=C(O)c1nn[nH]c1Sc1ccc(C#CCC2CC2)cc1` [Example 355, 5-(4-(3-Cyclopropylprop-1-ynyl)phenylthio)-1H-1,2,3-triazole-4-carboxylic Acid], the IC50 is 6 nM.

Take `O=C(O)c1nn[nH]c1Oc1cccc(C#Cc2cccc(Cl)c2)c1` [Example 187, 5-(3-(2-(3-Chlorophenyl)ethynyl)phenoxy)-1H-1,2,3-triazole-4-carboxylic Acid]: the IC50 turned out to be 1 nM.

As for `O=C(O)c1nn[nH]c1Oc1ccc(C#CC2CCCCC2)cc1` [Example 36, 5-(4-(2-Cyclohexylethynyl)phenoxy)-1H-1,2,3-triazole-4-carboxylic Acid], the concentration for half-maximal inhibition (IC50) amounted to 9 nM.

Consider `COc1cccc(C#Cc2ccc(Oc3[nH]nnc3C(=O)O)cc2)c1` [Example 281, 5-(4-(2-(3-Methoxyphenyl)ethynyl)phenoxy)-1H-1,2,3-triazole-4-carboxylic Acid], for which the IC50 amounted to 3 nM.

As for `O=C(O)c1nn[nH]c1Oc1cccc(C#CCc2ccccc2)c1` [Example 349, 5-(3-(3-Phenylprop-1-ynyl)phenoxy)-1H-1,2,3-triazole-4-carboxylic Acid], the IC50 was 5 nM.

Turning to `Cc1cccc(C#Cc2cccc(Oc3[nH]nnc3C(=O)O)c2)n1` [Example 294, 5-(3-(2-(6-Methylpyridin-2-yl)ethynyl)phenoxy)-1H-1,2,3-triazole-4-carboxylic Acid], the half-maximal inhibitory concentration (IC50) worked out at 3 nM.

`Cn1ncc2cccc(C#Cc3ccc(Oc4[nH]nnc4C(=O)O)cc3)c21` [Example 325, 5-(4-(2-(1-Methyl-1H-indazol-7-yl)ethynyl)phenoxy)-1H-1,2,3-triazole-4-carboxylic Acid]: the IC50 stood at 2 nM.

In the case of `O=C1CCC(C#Cc2cccc(Oc3[nH]nnc3C(=O)O)c2)CC1` [Example 352, 5-(3-((4-Oxocyclohexyl)ethynyl)phenoxy)-1H-1,2,3-triazole-4-carboxylic Acid], the IC50 was 34 nM.

On to `O=C(O)c1nn[nH]c1Oc1cccc(C#Cc2cccnn2)c1` [Example 340, 5-(3-(2-(Pyridazin-3-yl)ethynyl)phenoxy)-1H-1,2,3-triazole-4-carboxylic Acid], for which the half-maximal inhibitory concentration (IC50) stood at 3 nM.

Consider `O=C(O)c1nn[nH]c1Oc1ccc(C#Cc2ccccc2)cc1F` [Example 260, 5-(2-Fluoro-4-(2-phenylethynyl)phenoxy)-1H-1,2,3-triazole-4-carboxylic Acid], for which the IC50 was 5 nM.

Regarding `CS(=O)(=O)c1ccc(C#Cc2cc(Oc3[nH]nnc3C(=O)O)ccc2F)cc1` [Example 266, 5-(4-Fluoro-3-(2-(4-(methylsulfonyl)phenyl)ethynyl)phenoxy)-1H-1,2,3-triazole-4-carboxylic Acid], the IC50 worked out at 2 nM.

For the molecule `Cn1ccnc1C#Cc1cccc(Oc2[nH]nnc2C(=O)O)c1` [Example 334, 5-(3-(2-(1-Methyl-1H-imidazol-2-yl)ethynyl)phenoxy)-1H-1,2,3-triazole-4-carboxylic Acid], the IC50 came out at 5 nM.

Turning to `O=C(O)c1nn[nH]c1Nc1cccc(C#CCC2CC2)c1` [Example 363, 5-(3-(3-Cyclopropylprop-1-ynyl)phenylamino)-1H-1,2,3-triazole-4-carboxylic Acid], the 50% inhibitory concentration (IC50) worked out at 110 nM.

For `Cc1[nH]nc(Oc2ccc(C#CCC3CC3)cc2)c1C(=O)O` [Example 361, 3-(4-(3-Cyclopropylprop-1-ynyl)phenoxy)-5-methyl-1H-pyrazole-4-carboxylic Acid], the IC50 is more than 1000 nM.

As to `Cc1ccc(Oc2[nH]nnc2C(=O)O)cc1C#Cc1ccccc1` [Example 262, 5-(4-Methyl-3-(2-phenylethynyl)phenoxy)-1H-1,2,3-triazole-4-carboxylic Acid], the IC50 came out at 1 nM.

Consider `Cn1ncc2cc(C#Cc3cccc(Oc4[nH]nnc4C(=O)O)c3)ccc21` [Example 317, 5-(3-(2-(1-Methyl-1H-indazol-5-yl)ethynyl)phenoxy)-1H-1,2,3-triazole-4-carboxylic Acid], for which the IC50 turned out to be 2 nM.

Consider `N#Cc1cccc(C#Cc2ccc(Oc3[nH]nnc3C(=O)O)cc2F)c1` [Example 270, 5-(4-((3-Cyanophenyl)ethynyl)-3-fluorophenoxy)-1H-1,2,3-triazole-4-carboxylic Acid], for which the IC50 came out at 1 nM.

As to `O=C(O)c1nn[nH]c1Oc1ccc(Cl)c(C#Cc2ccccc2)c1` [Example 147, 5-(4-Chloro-3-(2-phenylethynyl)phenoxy)-1H-1,2,3-triazole-4-carboxylic Acid], the IC50 turned out to be 4 nM.

With `COc1cccc(C#Cc2cccc(Oc3[nH]nnc3C(=O)O)c2)c1` [Example 287, 5-(3-(2-(3-Methoxyphenyl)ethynyl)phenoxy)-1H-1,2,3-triazole-4-carboxylic Acid], the IC50 came to 4 nM.

For `O=C(O)c1nn[nH]c1Oc1cc(C#Cc2ccccc2)ccc1F` [Example 261, 5-(2-Fluoro-5-(2-phenylethynyl)phenoxy)-1H-1,2,3-triazole-4-carboxylic Acid], the IC50 amounted to 4 nM.

In the case of `Cn1cc(C#Cc2ccc(Oc3[nH]nnc3C(=O)O)cc2)cn1` [Example 220, 5-(4-(2-(1-Methyl-1H-pyrazol-4-yl)ethynyl)phenoxy)-1H-1,2,3-triazole-4-carboxylic Acid], the half-maximal inhibitory concentration (IC50) is 4 nM.

Turning to `Cn1ccnc1C#Cc1ccc(Oc2[nH]nnc2C(=O)O)cc1` [Example 333, 5-(4-(2-(1-Methyl-1H-imidazol-2-yl)ethynyl)phenoxy)-1H-1,2,3-triazole-4-carboxylic Acid], the IC50 came to 10 nM.

Take `CC(C)(O)C#Cc1cccc(Oc2[nH]nnc2C(=O)O)c1` [Example 215, 5-(3-(3-Hydroxy-3-methylbut-1-ynyl)phenoxy)-1H-1,2,3-triazole-4-carboxylic Acid]: the IC50 was 48 nM.
